Measured values reported in paper PMC8674134, “Safety and efficacy of avapritinib in advanced systemic mastocytosis: the phase 1 EXPLORER trial” (Nature Medicine, 2021).

Test system: advanced systemic mastocytosis (AdvSM)
Experiment: Centrally adjudicated response by mIWG-MRT-ECNM criteria (ORR, best response, time to response, C-finding improvement)
Format: in vivo, human
Description: The primary endpoints were MTD, RP2D and assessment of safety. Secondary endpoints included the ORR based on measurable C-finding responses per mIWG-MRT-ECNM criteria, which require 12-week confirmation of response. Responses in C-findings were centrally adjudicated by a Response Adjudication Committee (RAC) comprising a subset of study investigators (see below for further details and a list of RAC members). ORR included: CR or CRh (including complete resolution of all C-findings, elimination of marrow mast cell aggregates and serum tryptase <20 ng ml^−1); PR (resolution of ≥1 C-finding and ≥50% reduction in marrow mast cells and serum tryptase); and clinical improvement (resolution of ≥1 C-finding).
The safety population included all enrolled patients and was used to report AEs and PROs (in those who completed the questionnaire). The dose-determining population included all patients in a cohort in part 1 who received ≥21 prescribed avapritinib doses in C1 and completed follow-up through C1, or experienced DLT. The determination of the MTD and RP2D were based on the dose-determining population. […] The AdvSM safety population was also used to report AEs and OS. […] The response-evaluable population was used to report adjudicated response rates and PFS. The PK population comprised all patients with sufficient plasma concentration–time data to reliably estimate the PK parameters of avapritinib.
ORR was defined as the proportion of patients with a confirmed best response of CR, CRh, PR or clinical improvement by mIWG-MRT-ECNM consensus criteria. Time to CR/CRh/PR was defined as the time from the start of treatment to the time a CR/CRh/PR by mIWG-MRT-ECNM was first met. DOR was defined as the time from first documented response to the date of first documented progressive disease/loss of response or death due to any cause, whichever occurred first. OS was defined as the time from the start of treatment to the date of death. PFS was defined as the time from the start of treatment to the date of first documented progressive disease or death due to any cause, whichever occurred first. Progressive disease was defined per mIWG-MRT-ECNM criteria as worsening of ≥1 baseline C-finding confirmed for at least 4 weeks, or progression to acute myeloid leukemia.
Primary ORR analysis was based on RAC-adjudicated responses in the response-evaluable population. ORR was estimated using frequency, percentage and two-sided 95% CIs based on the exact binomial distribution (Clopper–Pearson). Statistical testing on binomial proportion against a null of 28% was performed using one-sided α = 0.025. Wald test P value was presented. CR + CRh + PR rate was summarized similarly as ORR. Statistical testing on binomial proportion against a null of 17% was performed using one-sided α = 0.025.

[1] = 53 response-evaluable patients, mIWG-MRT-ECNM
[2] = Prior midostaurin exposure (n = 17)
[3] = of 2 patients with C-finding at baseline, response-evaluable population (n = 53)
[4] = of 18 patients with C-finding at baseline, response-evaluable population (n = 53)
[5] = response-evaluable population (n = 53)

SMILES: Cn1cc(-c2cc3c(N4CCN(c5ncc([C@@](C)(N)c6ccc(F)cc6)cn5)CC4)ncnn3c2)cn1 [avapritinib]
- Clinical improvement rate (53 response-evaluable patients): 6%
- Partial remission (PR) rate (53 response-evaluable patients): 34%
- CR or CRh rate [1]: 36%
- Overall response rate (ORR; CR/CRh/PR/CI) [1]: 75%
- Best response CI (clinical improvement) (ASM (n = 3)): 0 n (%)
- Best response CR (ASM (n = 3)): 0 n (%)
- Best response CR or CRh (ASM (n = 3)): 2 (67) n (%)
- Best response CRh (ASM (n = 3)): 2 (67) n (%)
- Best response NE (not evaluable) (ASM (n = 3)): 0 n (%)
- Best response PD (ASM (n = 3)): 0 n (%)
- Best response PR (ASM (n = 3)): 1 (33) n (%)
- Best response SD (ASM (n = 3)): 0 n (%)
- ORR (CR + CRh + PR + CI) (ASM (n = 3)): 3 (100) n (%)
- Best response CI (clinical improvement) (All AdvSM (n = 53)): 3 (6) n (%)
- Best response CR (All AdvSM (n = 53)): 8 (15) n (%)
- Best response CR or CRh (All AdvSM (n = 53)): 19 (36) n (%)
- Best response CRh (All AdvSM (n = 53)): 11 (21) n (%)
- Best response NE (not evaluable) (All AdvSM (n = 53)): 1 (2) n (%)
- Best response PD (All AdvSM (n = 53)): 0 n (%)
- Best response PR (All AdvSM (n = 53)): 18 (34) n (%)
- Best response SD (All AdvSM (n = 53)): 12 (23) n (%)
- ORR (CR + CRh + PR + CI) (All AdvSM (n = 53)): 40 (75) n (%)
- Best response CI (clinical improvement) (Any prior therapy (n = 32)): 2 (6) n (%)
- Best response CR (Any prior therapy (n = 32)): 4 (13) n (%)
- Best response CR or CRh (Any prior therapy (n = 32)): 9 (28) n (%)
- Best response CRh (Any prior therapy (n = 32)): 5 (16) n (%)
- Best response NE (not evaluable) (Any prior therapy (n = 32)): 1 (3) n (%)
- Best response PD (Any prior therapy (n = 32)): 0 n (%)
- Best response PR (Any prior therapy (n = 32)): 11 (34) n (%)
- Best response SD (Any prior therapy (n = 32)): 9 (28) n (%)
- ORR (CR + CRh + PR + CI) (Any prior therapy (n = 32)): 22 (69) n (%)
- Best response CI (clinical improvement) (MCL (n = 13)): 2 (15) n (%)
- Best response CR (MCL (n = 13)): 3 (23) n (%)
- Best response CR or CRh (MCL (n = 13)): 3 (23) n (%)
- Best response CRh (MCL (n = 13)): 0 n (%)
- Best response NE (not evaluable) (MCL (n = 13)): 0 n (%)
- Best response PD (MCL (n = 13)): 0 n (%)
- Best response PR (MCL (n = 13)): 4 (31) n (%)
- Best response SD (MCL (n = 13)): 4 (31) n (%)
- ORR (CR + CRh + PR + CI) (MCL (n = 13)): 9 (69) n (%)
- Best response CI (clinical improvement) (Midostaurin naïve (n = 36)): 2 (6) n (%)
- Best response CR (Midostaurin naïve (n = 36)): 6 (17) n (%)
- Best response CR or CRh (Midostaurin naïve (n = 36)): 16 (44) n (%)
- Best response CRh (Midostaurin naïve (n = 36)): 10 (28) n (%)
- Best response NE (not evaluable) (Midostaurin naïve (n = 36)): 0 n (%)
- Best response PD (Midostaurin naïve (n = 36)): 0 n (%)
- Best response PR (Midostaurin naïve (n = 36)): 12 (33) n (%)
- Best response SD (Midostaurin naïve (n = 36)): 6 (17) n (%)
- ORR (CR + CRh + PR + CI) (Midostaurin naïve (n = 36)): 30 (83) n (%)
- Best response CI (clinical improvement) (No prior therapy (n = 21)): 1 (5) n (%)
- Best response CR (No prior therapy (n = 21)): 4 (19) n (%)
- Best response CR or CRh (No prior therapy (n = 21)): 10 (48) n (%)
- Best response CRh (No prior therapy (n = 21)): 6 (29) n (%)
- Best response NE (not evaluable) (No prior therapy (n = 21)): 0 n (%)
- Best response PD (No prior therapy (n = 21)): 0 n (%)
- Best response PR (No prior therapy (n = 21)): 7 (33) n (%)
- Best response SD (No prior therapy (n = 21)): 3 (14) n (%)
- ORR (CR + CRh + PR + CI) (No prior therapy (n = 21)): 18 (86) n (%)
- Best response CI (clinical improvement) [2]: 1 (6) n (%)
- Best response CR [2]: 2 (12) n (%)
- Best response CR or CRh [2]: 3 (18) n (%)
- Best response CRh [2]: 1 (6) n (%)
- Best response NE (not evaluable) [2]: 1 (6) n (%)
- Best response PD [2]: 0 n (%)
- Best response PR [2]: 6 (35) n (%)
- Best response SD [2]: 6 (35) n (%)
- ORR (CR + CRh + PR + CI) [2]: 10 (59) n (%)
- Best response CI (clinical improvement) (SM-AHN (n = 37)): 1 (3) n (%)
- Best response CR (SM-AHN (n = 37)): 5 (14) n (%)
- Best response CR or CRh (SM-AHN (n = 37)): 14 (38) n (%)
- Best response CRh (SM-AHN (n = 37)): 9 (24) n (%)
- Best response NE (not evaluable) (SM-AHN (n = 37)): 1 (3) n (%)
- Best response PD (SM-AHN (n = 37)): 0 n (%)
- Best response PR (SM-AHN (n = 37)): 13 (35) n (%)
- Best response SD (SM-AHN (n = 37)): 8 (22) n (%)
- ORR (CR + CRh + PR + CI) (SM-AHN (n = 37)): 28 (76) n (%)
- Median time to achieve CR/CRh (all starting doses): 9 months
- Median time to achieve PR or better (CR/CRh/PR) (all starting doses, range, 2–27 months): 2 months
- CR rate (midostaurin-naïve patients (6/36)): 17%
- CRh rate (midostaurin-naïve patients (10/36)): 28%
- CR/CRh rate (midostaurin-naïve patients (16/36)): 44%
- ORR (midostaurin-naïve patients (30/36)): 83%
- Patients with clinical improvement in C-finding: thrombocytopenia, transfusion dependent (of 1 patient with C-finding at baseline, response-evaluable population (n = 53)): 0 (0) n (%)
- Patients with clinical improvement in C-finding: anemia, transfusion dependent [3]: 1 (50) n (%)
- Patients with clinical improvement in C-finding: pleural effusions [3]: 2 (100) n (%)
- Patients with clinical improvement in C-finding: neutropenia (of 3 patients with C-finding at baseline, response-evaluable population (n = 53)): 0 (0) n (%)
- Patients with clinical improvement in C-finding: direct bilirubin >1.5 × ULN (of 6 patients with C-finding at baseline, response-evaluable population (n = 53)): 1 (17) n (%)
- Patients with clinical improvement in C-finding: hypoalbuminemia (of 7 patients with C-finding at baseline, response-evaluable population (n = 53)): 4 (57) n (%)
- Patients with clinical improvement in C-finding: ascites (of 10 patients with C-finding at baseline, response-evaluable population (n = 53)): 4 (40) n (%)
- Patients with clinical improvement in C-finding: anemia, transfusion independent (of 15 patients with C-finding at baseline, response-evaluable population (n = 53)): 3 (20) n (%)
- Patients with clinical improvement in C-finding: ALP >2.5 × ULN [4]: 12 (67) n (%)
- Patients with clinical improvement in C-finding: thrombocytopenia, transfusion independent [4]: 4 (22) n (%)
- Patients with clinical improvement in C-finding: splenomegaly ≥5 cm (of 28 patients with C-finding at baseline, response-evaluable population (n = 53)): 24 (86) n (%)
- ORR (patients with co-mutations in S/A/R genes): 74%
- ORR (patients with prior midostaurin exposure (10/17)): 59%
- ORR (patients without S/A/R co-mutations): 77%
- CRh rate (prior midostaurin exposure (1/17)): 6%
- CR rate (prior midostaurin exposure (2/17)): 12%
- CR/CRh rate (prior midostaurin exposure (3/17)): 18%
- Median time to clinical improvement: ALP >2.5 × ULN [5]: 2.9 months
- Median time to clinical improvement: anemia, transfusion dependent [5]: 0.3 months
- Median time to clinical improvement: anemia, transfusion independent [5]: 3.7 months
- Median time to clinical improvement: ascites [5]: 7.4 months
- Median time to clinical improvement: direct bilirubin >1.5 × ULN [5]: 8.3 months
- Median time to clinical improvement: hypoalbuminemia [5]: 3.3 months
- Median time to clinical improvement: pleural effusions [5]: 1.9 months
- Median time to clinical improvement: splenomegaly ≥5 cm [5]: 1.9 months
- Median time to clinical improvement: thrombocytopenia, transfusion independent [5]: 3.1 months
- Median time to PR or better (CR/CRh/PR) (starting doses of 200, 300 or 400 mg (≥200 mg QD)): 2 months
